From patent US20230148599A1, “FUNGICIDAL MIXTURES CONTAINING PYRAZOLE DERIVATIVES” (FMC Corporation, priority 2020, published 2023)

Columns and labels:
Format in all cases: in vivo
Phakopsora pachyrhizi = test: Test D: Asian soybean rust, preventive spray on soybean seedlings; details: 216 h, 100 = 100% disease control, 0 = no control, read-out: Test D disease control rating
Excerpt: (§1) General protocol for preparing test suspensions for Tests A-F: the test compounds were first dissolved in acetone in an amount equal to 3% of the final volume and then suspended at the desired concentration (in ppm) in acetone and purified water (50/50 mix by volume) containing 250 ppm of the surfactant PEG400 (polyhydric alcohol esters). The resulting test suspensions were then used in Tests A-F.
The test solution was sprayed to the point of run-off on soybean seedlings. The following day the seedlings were inoculated with a spore suspension of Phakopsora pachyrhizi (the causal agent of Asian soybean rust) and incubated in a saturated atmosphere at 22° C. for 24 h and then moved to a growth chamber at 22° C. for 8 days, after which time visual disease ratings were made.
(§2) A rating of 100 indicates 100% disease control and a rating of 0 indicates no disease control (relative to the controls). A dash (−) indicates the compound was not tested.

Septoria tritici = test: Test A: wheat leaf blotch, preventive spray on wheat seedlings; details: Zymoseptoria tritici, 456 h, 100 = 100% disease control, 0 = no control, read-out: Test A disease control rating
Excerpt: as §1
(§3) The test solution was sprayed to the point of run-off on wheat seedlings. The following day the seedlings were inoculated with a spore suspension of Septoria tritici (the causal agent of wheat leaf blotch) and incubated in a saturated atmosphere at 24° C. for 48 h, and then moved to a growth chamber at 20° C. for 17 days, after which time disease ratings were made.
as §2

Botrytis cinerea = test: Test E: tomato Botrytis, preventive spray on tomato seedlings; details: 120 h, 100 = 100% disease control, 0 = no control, read-out: Test E disease control rating
Excerpt: as §1
(§4) The test suspension was sprayed to the point of run-off on tomato seedlings. The following day the seedlings were inoculated with a spore suspension of Botrytis cinerea (the causal agent of tomato Botrytis) and incubated in a saturated atmosphere at 20° C. for 48 h, and then moved to a growth chamber at 24° C. for 3 days, after which time visual disease ratings were made.
as §2

Alternaria solani = test: Test F: tomato early blight, preventive spray on tomato seedlings; details: 120 h, 100 = 100% disease control, 0 = no control, read-out: Test F disease control rating
Excerpt: as §1
as §4, with “Alternaria solani” for “Botrytis cinerea”, “early blight)” for “Botrytis)”, “27°” for “20°”, “20°” for “24°”
as §2

[1] = system: Puccinia recondita f. sp. tritici; test: Test B: wheat leaf rust, preventive spray on wheat seedlings; details: 192 h, 100 = 100% disease control, 0 = no control, read-out: Test B disease control rating
Excerpt: as §1
as §3, with “Puccinia recondita f. sp.” for “Septoria”, “rust)” for “blotch)”, “20°” for “24°”, “24” for “48”, “7” for “17”
as §2

| SMILES | pest or weed control at 50 ppm (Phakopsora pachyrhizi) [%] | pest or weed control at 50 ppm (Septoria tritici) [%] | pest or weed control at 50 ppm (Botrytis cinerea) [%] | pest or weed control at 50 ppm (Alternaria solani) [%] | pest or weed control at 50 ppm [1] [%] | pest or weed control at 10 ppm (Phakopsora pachyrhizi) [%] | pest or weed control at 10 ppm (Septoria tritici) [%] | pest or weed control at 10 ppm (Botrytis cinerea) [%] | pest or weed control at 10 ppm (Alternaria solani) [%] | pest or weed control at 10 ppm [1] [%] |
| --- | --- | --- | --- | --- | --- | --- | --- | --- | --- | --- |
| Cc1cc(F)c(Nc2c(-c3ccc(C#N)cc3Cl)c(C)nn2C)c([N+](=O)[O-])c1 [Compound 127, 3-chloro-4-[5-[(2-fluoro-4-methyl-6-nitrophenyl)amino]-1,3-dimethyl-1H-pyrazol-4-yl]benzonitrile] | 96 | 100 | 100 | 100 | 99 | – | – | – | – | – |
| Cc1nn(C)c(Nc2c(F)cccc2[N+](=O)[O-])c1-c1c(F)cc(F)cc1Cl [Compound 68, 4-(2-chloro-4,6-difluorophenyl)-N-(2-fluoro-6-nitrophenyl)-1,3-dimethyl-1H-pyrazol-5-amine] | 99 | 100 | 100 | 99 | 100 | 32 | 100 | 100 | 98 | 100 |
| Cc1nn(C)c(Nc2c(Cl)cc(F)cc2[N+](=O)[O-])c1-c1ccc(C#N)cc1Cl [Compound 18, 3-chloro-4-[5-[(2-chloro-4-fluoro-6-nitrophenyl)amino]-1,3-dimethyl-1H-pyrazol-4-yl]benzonitrile] | 92 | 100 | 100 | 99 | 100 | – | – | – | – | – |
| Cc1nn(C)c(Nc2c(F)cc(Br)cc2[N+](=O)[O-])c1-c1ccc(F)cc1Cl [Compound 61, N-(4-bromo-2-fluoro-6-nitrophenyl)-4-(2-chloro-4-fluorophenyl)-1,3-dimethyl-1H-pyrazol-5-amine] | 84 | 100 | 99 | 99 | 100 | – | – | – | – | – |
| CCc1nn(C)c(Nc2c(F)cccc2[N+](=O)[O-])c1-c1ccc(F)cc1Cl [Compound 72, 4-(2-chloro-4-fluorophenyl)-N-(2-fluoro-6-nitrophenyl)-3-ethyl-1-methyl-1H-pyrazol-5-amine] | 31 | 100 | 98 | 99 | 100 | 12 | 100 | 98 | 63 | 85 |
| COc1cc(F)c(Nc2c(-c3ccc(F)cc3F)c(C)nn2C)c([N+](=O)[O-])c1 [Compound 57, 4-(2,4-difluorophenyl)-N-(2-fluoro-4-methoxy-6-nitrophenyl)-1,3-dimethyl-1H-pyrazol-5-amine] | 96 | 100 | 100 | 100 | 100 | – | – | – | – | – |
| Cc1nn(C)c(Nc2ccc(F)cc2[N+](=O)[O-])c1-c1ccc(F)cc1Cl [Compound 111, 4-(2-chloro-4-fluorophenyl)-N-(4-fluoro-2-nitrophenyl)-1,3-dimethyl-1H-pyrazol-5-amine] | 0 | 100 | 100 | 93 | 99 | – | – | – | – | – |
| COc1cc(F)c(Nc2c(-c3c(F)cccc3Cl)c(C)nn2C)c([N+](=O)[O-])c1 [Compound 23, 4-(2-chloro-6-fluorophenyl)-N-(2-fluoro-4-methoxy-6-nitrophenyl)-1,3-dimethyl-1H-pyrazol-5-amine] | 99 | 100 | 97 | 99 | 100 | – | – | – | – | – |
| Cc1nn(C)c(Nc2c(F)cccc2[N+](=O)[O-])c1-c1ccc(F)cc1F [Compound 118, 4-(2,4-difluorophenyl)-N-(2-fluoro-6-nitrophenyl)-1,3-dimethyl-1H-pyrazol-5-amine] | 0 | 100 | 100 | 99 | 100 | 0 | 100 | 99 | 60 | 80 |
| COc1ccc(-c2c(C)nn(C)c2Nc2c(Cl)cc(F)cc2[N+](=O)[O-])c(Cl)c1 [Compound 73, N-(2-chloro-4-fluoro-6-nitrophenyl)-4-(2-chloro-4-methoxyphenyl)-1,3-dimethyl-1H-pyrazol-5-amine] | 98 | 100 | 99 | 97 | 100 | – | – | – | – | – |
| Cc1nn(C)c(Nc2c(F)cccc2[N+](=O)[O-])c1-c1ccc(F)cc1Br [Compound 60, 4-(2-bromo-4-fluorophenyl)-N-(2-fluoro-6-nitrophenyl)-1,3-dimethyl-1H-pyrazol-5-amine] | 97 | 100 | 99 | 99 | 100 | 0 | 99 | 99 | 75 | 100 |
| Cc1nn(C)c(Nc2c(F)cccc2[N+](=O)[O-])c1-c1ccc(C#N)cc1Cl [Compound 113, 3-chloro-4-[5-[(2-fluoro-6-nitrophenyl)amino]-1,3-dimethyl-1H-pyrazol-4-yl]benzonitrile] | 13 | 100 | 99 | 99 | 99 | – | – | – | – | – |
| Cc1cc(F)c(Nc2c(-c3ccc(F)cc3Cl)c(C)nn2C)c([N+](=O)[O-])c1 [Compound 93, 4-(2-chloro-4-fluorophenyl)-N-(2-fluoro-4-methyl-6-nitrophenyl)-1,3-dimethyl-1H-pyrazol-5-amine] | 100 | 100 | 100 | 99 | 100 | 87 | 99 | 99 | 99 | 100 |
| Cc1nn(C)c(Nc2c(F)cc(Cl)cc2[N+](=O)[O-])c1-c1ccc(F)cc1Cl [Compound 121, N-(4-chloro-2-fluoro-6-nitrophenyl)-4-(2-chloro-4-fluorophenyl)-1,3-dimethyl-1H-pyrazol-5-amine] | 99 | 100 | 100 | 100 | 100 | – | – | – | – | – |
| Cc1nn(C)c(Nc2c(Cl)cc(F)cc2[N+](=O)[O-])c1-c1ccc(F)cc1Cl [Compound 19, N-(2-chloro-4-fluoro-6-nitrophenyl)-4-(2-chloro-4-fluorophenyl)-1,3-dimethyl-1H-pyrazol-5-amine] | 98 | 100 | 100 | 99 | 100 | – | – | – | – | – |
